Here are results for 3 compounds from patent US20240199577A1, “ACORAMIDIS ANALOGS FOR STABILIZING TRANSTHYRETIN AND INHIBITING TRANSTHYRETIN MISFOLDING” (Protego Biopharma, Inc., priority 2021, published 2024).

The conditions of data set [1]: tafamidis-treated FAP patients, cited from earlier work.
Data set [2] can be described thus: Pharmacokinetic study in rat (plasma, CSF, brain). It counts as in vivo. To be noted: male, Sprague-Dawley, oral dose of 40 mg/kg. The source says: For a compound provided herein to be an effective TTR stabilizer drug to halt and/or prevent the ocular and cerebral TTR amyloid deposition TTR amyloidosis, it has to be able to penetrate into the brain and CSF (surrogate for eye penetration) and deliver a sufficient amount of TTR stabilizer to stop TTR dissociation. A pharmacokinetic study in rat is used to evaluate the compounds. Male Sprague-Dawley (SD) rats (200-220 g weight) are acclimated for at least 2 to 3 days before being placed on study. All animals will have access to certified rodent diet and water at libitum. […] For IV dosing, the test compound is administered via tail vein or indwelling cannula. For oral dosing, the test compound is administered by oral gavage. Blood and CSF samples are collected at selected timepoints. Blood collection is performed from saphenous vein or tail vein of each animal into polypropylene tubes at each timepoint. […] The weight of brain samples is recorded. […] Using a LC-MSMS method for the quantitative determination of test compound in biological matrixes, amount of test compound and active agent are measured in plasma and CSF at selected timepoints post-dosing and in brain at 24 hrs post dosing. Plasma concentration versus time data is analyzed by non-compartmental approaches using the Phoenix WinNonlin 6.3 software program. […]

Data set [3] is described as follows: In vitro rat liver S9 stability assay (formation of AG10). It counts as in vitro ADME. To be noted: rat liver S9, 1 μM test compound, 37° C. As to the method: The test compound was added to liver S9 and incubated at 37° C. in a water bath at a concentration of 1 μM. At each time point (0, 5, 10, 20, 30 and 60 min), stop solution (tolbutamide plus labetalol) was added to precipitate protein and mixed thoroughly. After centrifugation, an aliquot of supernatant was analyzed by LC-MS/MS. The percentage of formation of active agent was calculated at each time point.

Regarding `O=C(O)c1ccc2nc(-c3cc(Cl)cc(Cl)c3)oc2c1` [tafamidis], in data set [1] (CSF), the “tafamidis level in CSF relative to that in plasma” value is reported as 2% and the “tafamidis/TTR stoechimetric ratio in CSF” value was at most 1. Besides, the “tafamidis/TTR stoechimetric ratio in plasma” value in data set [1] (plasma) is given as 2.4. Also, in data set [1] (vitreous), the “tafamidis level in vitreous relative to that in plasma” value was 0.5% and the “tafamidis/TTR stoechimetric ratio in vitreous” value is at most 1.
Regarding `Cc1n[nH]c(C)c1CCCOc1cc(C(=O)O)ccc1F` [AG10, acoramidis], the Kp in data set [2] (CSF and plasma, over 24 hrs, read-out: CSF to plasma ratio over 24 hrs) was around 0.009. The Kp at 24 h in data set [2] (brain and plasma, at 24 hrs, read-out: brain to plasma ratio at 24 hrs) was around 0.008.
Consider `Cc1n[nH]c(C)c1CCCOc1cc(C(=O)OC2CCN(C)C2)ccc1F` (centres unmarked) [Compound 2, 1-methylpyrrolidin-3-yl 3-(3-(3,5-dimethyl-1H-pyrazol-4-yl)propoxy)-4-fluorobenzoate], for which, in data set [3], the “Formation of AG10 at 60 min” value is “A (A is <25%)”.
